# Laboratory results as given in article PMC10671052, “Naphthyl-Substituted Indole and Pyrrole Carboxylic Acids as Effective Antibiotic Potentiators—Inhibitors of Bacterial Cystathionine γ-Lyase” (International Journal of Molecular Sciences, 2023).
# Assays:
# in vitro [1] = assay: in vitro
# Procedure: A test compound (final concentration 10 μM) was incubated at 37 °C in SGF, SIF, or human plasma for 2, 2, or 4 h, respectively. 100 μL aliquots were taken from each sample and 300 μL of acetonitrile containing an internal standard was added. […] All compounds were tested in triplicate. The percentage of a remaining compound after incubation was determined based on the chromatographic peak area of the sample after incubation and that of time zero (freshly prepared and injected) sample.
# Caco-2 cell permeability = type: in vitro ADME; conditions: human
# Procedure: (§1) The culture medium consisted of high-glucose DMEM containing 10% of fetal bovine serum, 4 mM L-glutamine, 1% of a solution of nonessential amino acids (PanEco, Moscow, Russia), 100 U/mL penicillin, and 100 μg/mL streptomycin. The cells were maintained for 21 days at 37 °C and 5% CO2. The medium was refreshed every 3 days. A Lucifer yellow rejection assay was applied to determine cell monolayer integrity. […] The Lucifer yellow rejection value was calculated using the equation: LY % rejection = 100*(1−FIb/FIa), where FIb is the fluorescence in the basolateral compartment and FIa is the fluorescence in the apical compartment. […] Both apical-to-basolateral (AB) and basolateral-to-apical (BA) transport were assessed. For apical-to-basolateral transport, 0.3 mL of a test compound solution was added to the apical side, and 0.8 mL of HBSS with 0.5% of BSA was added to the basolateral side. For basolateral-to-apical transport, 0.8 mL of a test compound solution was added to the basolateral side and 0.3 mL of HBSS with 0.5% of BSA was added to the apical side. The Caco-2 cell monolayers were then incubated for 2 h at 37 °C. The pH values of the apical and basolateral compartments were 7.4. […] The supernatant was transferred to a vial and analyzed by liquid chromatography coupled with tandem MS (LC–MS/MS). The AB (or BA) apparent permeability coefficients (Papp, 10^–6 cm/s) were calculated according to the following formula [40, 41]: Papp = (V × ∆C)/(∆t × A × C0), where V is the volume of the receiver compartment (cm^3), C0 is the initial drug concentration in the donor compartment (μM), ∆C is the concentration in the receiver compartment (μM), ∆t is the incubation time (s), and A is the surface area of the cell monolayer (cm^2). An efflux ratio was calculated by dividing Papp (BA) by Papp (AB). All compounds were tested in duplicate.
# Caco-2 cell monolayer = assay: Caco-2 cell permeability; type: in vitro ADME; conditions: Papp (BA) / Papp (AB); listed as lead compound
# Procedure: as §1
# in vitro [2] = type: in vitro ADME; conditions: human, plasma, pH 7.4, Fraction bound fb
# Procedure: Plasma protein binding was assessed using RED device inserts with built-in cellulose acetate dialysis membranes (molecular weight cutoff: 8 kDa). The final concentration of the test compound in human plasma was 5 μM. The samples were prepared by placing 300 μL of human plasma into the plasma compartment of the RED device and 500 μL of phosphate-buffered saline (pH 7.4) into the buffer compartment. The RED device was fixed to a shaker, placed in a CO2 (5%) incubator, and incubated for 6 h at 37 °C. After an equilibration step, 100 μL aliquots were taken from each compartment; 100 μL of plasma was added to the buffer compartment aliquot and 100 μL of buffer was added to the plasma compartment aliquot. After mixing, 600 μL of acetonitrile containing an internal standard was added. […] All compounds were tested in duplicate. Fraction bound fb was determined via the following equation: fb (%) = [1 − (Cb/Cp)] × 100, where Cb is the concentration of an analyte in the buffer compartment (μM), and Cp is the concentration of the analyte in the plasma compartment (μM).
# [3] = HEK293 cytotoxicity assay (Alamar Blue); type: cell-based; conditions: human, HEK293 cells, HEK293, 72 h
# Procedure: The HEK 293 cell line was obtained from the European Collection of Authenticated Cell Cultures (ECACC, cat. # 85120602, Salisbury, UK). The cells were grown in a monolayer culture in Dulbecco’s Modified Eagle’s Medium (DMEM) (PanEco, Moscow, Russia), supplemented with 2 mM L-glutamine, 1% of a penicillin/streptomycin solution (Capricorn Scientific, Ebsdorfergrund, Germany), and 10% of heat inactivated fetal bovine serum (HyClone, Cytiva, Marlborough, MA, USA) in a humidified atmosphere containing 5% of CO2 at 37 °C (Binder, Germany). For the assay, HEK 293 cells were seeded in a 96-well plate (Corning, NY, USA) in 100 μL of the complete culture medium, at a final density of 2 × 10^3 cells/well, and were cultured for 24 h for proper attachment. Subsequently, the medium was removed, and the cells were exposed to a tested inhibitor at different concentrations for 72 h in 100 μL of the fresh complete culture medium. The sensitivity of the cells to the compounds was detected using the vital dye Alamar Blue (Invitrogen, San Diego, CA, USA). The Alamar Blue assay was performed according to the procedure described by O’Brien et al.. After incubation with the tested bCSE inhibitors, 10 μL of the Alamar Blue reagent was added into each well, the cell culture plates were returned to the humidified incubator, and the fluorescence was read after 3 h. The plates were exposed to an excitation light of 545 nm wavelength, and emission at 600 nm was measured on the CLARIOstar Plus (BMG LABTECH GmbH, Ortenberg, Germany). To determine half-maximal cytotoxic concentration (CC50), a four-parameter sigmoidal curve model (GraphPad Prism 8 software) was fitted to the measurement data.
compound,measurement,setting,value
O=C(O)c1cc2ccccc2n1Cc1cccc2ccccc12 [Compound 2a],"Stability in human plasma, % Remaining at 4 h","in vitro [1]; 4 h, 10 μM",97.6%
same,"remaining at 4 h, 10 μM","in vitro [1]; human, plasma, Stability in human plasma, % Remaining at 4 h",97.6 ± 7.95%
same,"Stability in SGF, % Remaining at 2 h","in vitro [1]; simulated gi fluid, 2 h, 10 μM",91.9%
same,"Stability in SIF, % Remaining at 2 h","in vitro [1]; simulated gi fluid, 2 h, 10 μM",104.1%
same,"remaining at 2 h, 10 μM","in vitro [1]; simulated gi fluid, Stability in SGF",91.9 ± 2.68%
same,"remaining at 2 h, 10 μM","in vitro [1]; simulated gi fluid, Stability in SIF",104 ± 14.2%
same,"efflux ratio at 2 h, 10 μM","Caco-2 cell permeability; Caco-2, Papp (BA) / Papp (AB)",1.13
same,"Papp A→B at 2 h, 10 μM","Caco-2 cell permeability; Caco-2, 10 μM, 2 h, pH 7.4",43.3 ± 2.8 ×10⁻⁶ cm/s
same,"Papp B→A at 2 h, 10 μM","Caco-2 cell permeability; Caco-2, 10 μM, 2 h, pH 7.4",49.1 ± 6 ×10⁻⁶ cm/s
same,Efflux ratio,Caco-2 cell monolayer,less than 2.0
same,"fraction unbound at 6 h, 5 μM",in vitro [2],< 0.01
same,CC50 at 72 h,[3],291 ± 8.11 µM
